Values of other authors in publication PMC11237654, “Optimization of quenched fluorescent peptide substrates of SARS-CoV-2 3CL^pro main protease (Mpro) from proteomic identification of P6—P6' active site specificity” (Journal of Virology, 2024).
Square brackets hold non-standard residues; d marks the D form. * marks the point of attachment. ACC = NC(=O)Cc1cc(=O)oc2cc(N*)ccc12; Tle = CC(C)(C)[C@H](N)C(=O)O; Abu = CC[C@H](N)C(=O)O

Target: SARS-CoV-2 3CL^pro (Severe acute respiratory syndrome coronavirus 2, UniProt P0DTD1, Q3569A)
Details: cited from earlier work

Substance: Ac-[Abu][Tle]LQ-{ACC}
- kcat/KM: 859 M⁻¹ s⁻¹
